Common to all, as to format: cell-based
The subject of assay [1] is Aspergillus flavus. The assay can be described thus: MIC, YAG medium. The conditions noted are these: 24 h at 35° C, MIC banded into grades; for MIC: Aspergillus flavus, 24 h, read-out: MIC grade, A. flavus. In outline:
(§1)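 OD 485 nm read-out after 24 h at 35° C; MIC = lowest concentration inhibiting growth >70% vs drug-free control, in mg/L. Inoculum 1−2×10^4 cfu/mL in YAG medium; drug range 50-0.05 mg/L, retested at 0.5-0.0005 mg/L when needed.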

In assay [2] the test system is Aspergillus fumigatus AF210. The assay can be described thus: MIC, YAG medium. The conditions noted are these: 24 h at 35° C, MIC banded into grades; for MIC: Aspergillus fumigatus, read-out: MIC grade, A. fumigatus 210. A digest of the protocol:
as §1

Assay [3] relates to Aspergillus fumigatus AF293. The assay can be described thus: MIC, YAG medium. The settings on record: 24 h at 35° C, MIC banded into grades; for MIC: Aspergillus fumigatus, read-out: MIC grade, A. fumigatus. In outline:
as §1

Assay [4] concerns Aspergillus niger. The assay can be described thus: MIC, YAG medium. The settings on record: 24 h at 35° C, MIC banded into grades; for MIC: Aspergillus niger, read-out: MIC grade, A. niger. In outline: as §1
Assay [5] concerns Aspergillus terreus AT49. In words: MIC, YAG medium. The conditions noted are these: 24 h at 35° C, MIC banded into grades; for MIC: Aspergillus terreus, read-out: MIC grade, A. terreus 49. In outline: as §1
The test system of assay [6] is Aspergillus terreus AT4. In words: MIC, YAG medium. The conditions noted are these: 24 h at 35° C, MIC banded into grades; for MIC: Aspergillus terreus, read-out: MIC grade, A. terreus. In outline:
as §1

Assay [7] concerns Aspergillus flavus. The assay can be described thus: MIC, RPMI medium. The settings on record: MIC banded into grades; for MIC: Aspergillus flavus, read-out: MIC grade, A. flavus. In outline:
(§2)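 Minimum inhibitory concentrations were determined in glucose-supplemented (2%) RPMI buffered to pH 7.0 with 0.135 M MOPS. Wells held 1−2×10^4 cfu/mL and compound from 50 to 0.05 mg/L, incubated 24-48 h at 35° C, with >80% growth reduction by OD 485 nm as endpoint.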

Assay [8] has as its system Aspergillus fumigatus AF210. The assay can be described thus: MIC, RPMI medium. The conditions noted are these: for MIC: Aspergillus fumigatus, AF210, MIC banded into grades, read-out: MIC grade, A. fumigatus 210. In outline:
as §2

Assay [9] has as its system Aspergillus fumigatus AF293. In words: MIC, RPMI medium. The settings on record: for MIC: Aspergillus fumigatus, AF293, MIC banded into grades, read-out: MIC grade, A. fumigatus. In outline:
as §2

Assay [10] has as its system Aspergillus niger. In words: MIC, RPMI medium. The settings on record: MIC banded into grades; for MIC: Aspergillus niger, read-out: MIC grade, A. niger. A digest of the protocol:
as §2

Assay [11] relates to Aspergillus terreus AT49. The assay can be described thus: MIC, RPMI medium. The conditions noted are these: for MIC: Aspergillus terreus, AT49, MIC banded into grades, read-out: MIC grade, A. terreus 49. A digest of the protocol:
as §2

The test system of assay [12] is Aspergillus terreus AT4. In words: MIC, RPMI medium. The conditions noted are these: for MIC: Aspergillus terreus, AT4, MIC banded into grades, read-out: MIC grade, A. terreus. A digest of the protocol:
as §2

SMILES strings stand for the structures. Values after ≈ are worked out from the molar mass of the structure shown.

In general, MIC refers to the least concentration at which growth counts as inhibited. In the case of `Cc1cc(C)nc(N2CCN(c3ccc(NC(=O)C(=O)c4c(-c5ccco5)cc(C)n4C)cc3)CC2)c1` [Example 12, N-{4-[4-(4,6-Dimethyl-pyridin-2-yl)-piperazin-1-yl]-phenyl}-2-(3-furan-2-yl-1,5-dimethyl-1H-pyrrol-2-yl)-2-oxo-acetamide], the MIC (in the assay with Aspergillus flavus [1]; in assay [2]; in assay [3]; with Aspergillus niger [4]; with Aspergillus terreus AT49 [5]; with Aspergillus terreus AT4 [6]) was < 1 µg/mL in each case. In addition, the MIC (with Aspergillus flavus [7]; in assay [8]; in assay [9]; in the assay on Aspergillus niger [10]; in the assay on Aspergillus terreus AT49 [11]; with Aspergillus terreus AT4 [12]) was < 1 µg/mL throughout.

For `CCCCOCn1c(C)cc(-c2ccccc2)c1C(=O)C(=O)Nc1ccc(N2CCN(c3cc(C)cc(C)n3)CC2)cc1` [Example 135, 2-(1-Butoxymethyl-5-methyl-3-phenyl-1H-pyrrol-2-yl)-N-{4-[4-(4,6-dimethyl-pyridin-2-yl)-piperazin-1-yl]-phenyl}-2-oxo-acetamide], the MIC in the assay with Aspergillus flavus [1] is > 10 µg/mL; in assay [2] it was 1 to 10 µg/mL (≈ 1.72 to 17.2 µM); in assay [3], < 1 µg/mL; in the assay on Aspergillus niger [4], 1 to 10 µg/mL (≈ 1.72 to 17.2 µM); with Aspergillus terreus AT49 [5] it was > 10 µg/mL; in the assay with Aspergillus terreus AT4 [6], 1 to 10 µg/mL (≈ 1.72 to 17.2 µM). In addition, the MIC (in the assay with Aspergillus flavus [7]; in assay [8]; in assay [9]; in the assay with Aspergillus niger [10]; in the assay on Aspergillus terreus AT49 [11]; in the assay on Aspergillus terreus AT4 [12]) was > 10 µg/mL each time.

Consider `COCc1cc(-c2ccccc2)c(C(=O)C(=O)Nc2ccc(N3CCN(c4cc(C)cc(C)n4)CC3)cc2)n1C` [Example 130, N-{4-[4-(4,6-Dimethyl-pyridin-2-yl)-piperazin-1-yl]-phenyl}-2-(5-methoxymethyl-1-methyl-3-phenyl-1H-pyrrol-2-yl)-2-oxo-acetamide], for which the MIC (in the assay on Aspergillus flavus [1]; in [2]; in [3]; in the assay on Aspergillus niger [4]; in the assay with Aspergillus terreus AT49 [5]; in the assay with Aspergillus terreus AT4 [6]) was < 1 µg/mL each time. Further, the MIC (with Aspergillus flavus [7]; in assay [8]; in assay [9]; with Aspergillus niger [10]; in the assay with Aspergillus terreus AT49 [11]; with Aspergillus terreus AT4 [12]) was < 1 µg/mL in each case.

Regarding `COCCn1c(C)cc(-c2ccccc2)c1C(=O)C(=O)Nc1ccc(N2CCOCC2)c(F)c1` [Example 126, N-(3-Fluoro-4-morpholin-4-yl-phenyl)-2-[1-(2-methoxy-ethyl)-5-methyl-3-phenyl-1H-pyrrol-2-yl]-2-oxo-acetamide], the MIC is 1 to 10 µg/mL (≈ 2.15 to 21.5 µM) in the assay on Aspergillus flavus [1]; < 1 µg/mL in assay [2]; < 1 µg/mL in [3]; 1 to 10 µg/mL (≈ 2.15 to 21.5 µM) with Aspergillus niger [4]; < 1 µg/mL with Aspergillus terreus AT49 [5]; < 1 µg/mL in the assay on Aspergillus terreus AT4 [6]. The MIC with Aspergillus flavus [7] was > 10 µg/mL; in assay [8], 1 to 10 µg/mL (≈ 2.15 to 21.5 µM); in assay [9], 1 to 10 µg/mL (≈ 2.15 to 21.5 µM); in the assay on Aspergillus niger [10], > 10 µg/mL; with Aspergillus terreus AT49 [11] it was 1 to 10 µg/mL (≈ 2.15 to 21.5 µM); in the assay with Aspergillus terreus AT4 [12], 1 to 10 µg/mL (≈ 2.15 to 21.5 µM).

`Cc1cc(C)nc(N2CCN(c3ccc(NC(=O)C(=O)c4c(-c5ccccc5)cc(C)n4Cc4ccccn4)cc3)CC2)c1` [Example 91, N-{4-[4-(4,6-Dimethyl-pyridin-2-yl)-piperazin-1-yl]-phenyl}-2-(5-methyl-3-phenyl-1-pyridin-2-ylmethyl-1H-pyrrol-2-yl)-2-oxo-acetamide]: the MIC in the assay on Aspergillus flavus [1] is > 10 µg/mL; in [2], 1 to 10 µg/mL (≈ 1.71 to 17.1 µM); in assay [3] it was 1 to 10 µg/mL (≈ 1.71 to 17.1 µM); with Aspergillus niger [4] it was > 10 µg/mL; with Aspergillus terreus AT49 [5], 1 to 10 µg/mL (≈ 1.71 to 17.1 µM); in the assay on Aspergillus terreus AT4 [6], > 10 µg/mL. Moreover, the minimal inhibitory concentration (MIC) (with Aspergillus flavus [7]; in assay [8]; in assay [9]; in the assay with Aspergillus niger [10]; with Aspergillus terreus AT49 [11]; in the assay on Aspergillus terreus AT4 [12]) was > 10 µg/mL each time.

For the molecule `Cc1cc(-c2ccccc2)c(C(=O)C(=O)Nc2cccc3ccccc23)n1C` [Example 16, 2-(1,5-Dimethyl-3-phenyl-1H-pyrrol-2-yl)-N-naphthalen-1-yl-2-oxo-acetamide], the MIC (in the assay with Aspergillus flavus [1]; in assay [2]; in assay [3]; in the assay with Aspergillus niger [4]; in the assay with Aspergillus terreus AT49 [5]; in the assay on Aspergillus terreus AT4 [6]) was < 1 µg/mL each time. Further, the MIC in the assay on Aspergillus flavus [7] was < 1 µg/mL; in assay [8], 1 to 10 µg/mL (≈ 2.71 to 27.1 µM); in assay [9] it was < 1 µg/mL; in the assay with Aspergillus niger [10], < 1 µg/mL; in the assay with Aspergillus terreus AT49 [11] it was < 1 µg/mL; in the assay on Aspergillus terreus AT4 [12] it was < 1 µg/mL.

Consider `Cc1cc(C)nc(N2CCN(c3ccc(NC(=O)C(=O)c4c(-c5ccccc5)cc(C)n4Cc4cccnc4)cc3)CC2)c1` [Example 93, N-{4-[4-(4,6-Dimethyl-pyridin-2-yl)-piperazin-1-yl]-phenyl}-2-(5-methyl-3-phenyl-1-pyridin-3-ylmethyl-1H-pyrrol-2-yl)-2-oxo-acetamide], for which the MIC in the assay on Aspergillus flavus [1] was 1 to 10 µg/mL (≈ 1.71 to 17.1 µM); in assay [2], < 1 µg/mL; in [3] it was < 1 µg/mL; with Aspergillus niger [4], < 1 µg/mL; in the assay on Aspergillus terreus AT49 [5], 1 to 10 µg/mL (≈ 1.71 to 17.1 µM); with Aspergillus terreus AT4 [6], 1 to 10 µg/mL (≈ 1.71 to 17.1 µM). In addition, the MIC with Aspergillus flavus [7] was > 10 µg/mL; in assay [8], 1 to 10 µg/mL (≈ 1.71 to 17.1 µM); in assay [9], 1 to 10 µg/mL (≈ 1.71 to 17.1 µM); in the assay on Aspergillus niger [10], 1 to 10 µg/mL (≈ 1.71 to 17.1 µM); in the assay with Aspergillus terreus AT49 [11], > 10 µg/mL; in the assay on Aspergillus terreus AT4 [12], > 10 µg/mL.

As for `Cc1cc(-c2ccccc2)c(C(=O)C(=O)Nc2ccc(N3CCN(C(C)C(C)C)CC3)cc2)n1C` (stereo not drawn) [Example 150, 2-(1,5-Dimethyl-3-phenyl-1H-pyrrol-2-yl)-N-{4-[4-(1,2-dimethyl-propyl)-piperazin-1-yl]-phenyl}-2-oxo-acetamide], the MIC (with Aspergillus flavus [1]; in assay [2]; in assay [3]; in the assay with Aspergillus niger [4]; with Aspergillus terreus AT49 [5]; in the assay with Aspergillus terreus AT4 [6]) was < 1 µg/mL each time. Besides, the MIC (in the assay on Aspergillus flavus [7]; in assay [8]; in [9]; in the assay with Aspergillus niger [10]; in the assay on Aspergillus terreus AT49 [11]; in the assay with Aspergillus terreus AT4 [12]) was < 1 µg/mL in each case.

Regarding `Cc1cc(-c2ccccc2)c(C(=O)C(=O)Nc2ccc(N3CCCC3)nc2)n1C` [Example 99, 2-(1,5-Dimethyl-3-phenyl-1H-pyrrol-2-yl)-2-oxo-N-(6-pyrrolidin-1-yl-pyridin-3-yl)-acetamide], the MIC was < 1 µg/mL in the assay with Aspergillus flavus [1]; < 1 µg/mL in [2]; 1 to 10 µg/mL (≈ 2.57 to 25.7 µM) in assay [3]; 1 to 10 µg/mL (≈ 2.57 to 25.7 µM) in the assay with Aspergillus niger [4]; < 1 µg/mL with Aspergillus terreus AT49 [5]; < 1 µg/mL in the assay on Aspergillus terreus AT4 [6]. In addition, the MIC with Aspergillus flavus [7] is < 1 µg/mL; in assay [8], 1 to 10 µg/mL (≈ 2.57 to 25.7 µM); in assay [9], < 1 µg/mL; with Aspergillus niger [10] it was < 1 µg/mL; with Aspergillus terreus AT49 [11] it was < 1 µg/mL; in the assay with Aspergillus terreus AT4 [12], < 1 µg/mL.

For `COC(=O)Cn1c(C)cc(-c2ccccc2)c1C(=O)C(=O)Nc1ccc(N2CCN(c3cc(C)cc(C)n3)CC2)cc1F` [Example 111, (2-{4-[4-(4,6-Dimethyl-pyridin-2-yl)-piperazin-1-yl]-2-fluoro-phenylaminooxalyl}-5-methyl-3-phenyl-pyrrol-1-yl)-acetic acid methyl ester], the “MIC grade, A. flavus” value against Aspergillus flavus [1] and against Aspergillus flavus [7] was 2 (A grade of 2 represents an MIC of from 1 to 10 mg/L) throughout. The “MIC grade, A. fumigatus 210” value in [2] and in assay [8] (MIC banded into grades) was 3 (A grade of 3 represents an MIC of less than 1 mg/L) in each case. In addition, the “MIC grade, A. fumigatus” value in [3] and in [9] (MIC banded into grades) was 3 (A grade of 3 represents an MIC of less than 1 mg/L) each time. In addition, the “MIC grade, A. niger” value against Aspergillus niger [4] and against Aspergillus niger [10] was 3 (A grade of 3 represents an MIC of less than 1 mg/L) in each case. Moreover, the “MIC grade, A. terreus 49” value in the assay on Aspergillus terreus AT49 [5] is 3 (A grade of 3 represents an MIC of less than 1 mg/L); in the assay on Aspergillus terreus AT49 [11] (MIC banded into grades), 2 (A grade of 2 represents an MIC of from 1 to 10 mg/L). Further, the “MIC grade, A. terreus” value with Aspergillus terreus AT4 [6] and with Aspergillus terreus AT4 [12] (MIC banded into grades) was 3 (A grade of 3 represents an MIC of less than 1 mg/L) in each case.

The values above are taken from patent publication US8993574B2, “Pyrrole antifungal agents” (F2G Ltd, priority 2008, dated 2015).
